This is an account of results in patent US10028942B2 (priority 2013, dated 2018).

Structures are written as SMILES. pKi: −log10 of the molar value. Where only a bound is given, the exact number is not on record here.

One test addresses T1, DLK (Homo sapiens, UniProt Q12852).
T1 sequence (Q12852 1-520): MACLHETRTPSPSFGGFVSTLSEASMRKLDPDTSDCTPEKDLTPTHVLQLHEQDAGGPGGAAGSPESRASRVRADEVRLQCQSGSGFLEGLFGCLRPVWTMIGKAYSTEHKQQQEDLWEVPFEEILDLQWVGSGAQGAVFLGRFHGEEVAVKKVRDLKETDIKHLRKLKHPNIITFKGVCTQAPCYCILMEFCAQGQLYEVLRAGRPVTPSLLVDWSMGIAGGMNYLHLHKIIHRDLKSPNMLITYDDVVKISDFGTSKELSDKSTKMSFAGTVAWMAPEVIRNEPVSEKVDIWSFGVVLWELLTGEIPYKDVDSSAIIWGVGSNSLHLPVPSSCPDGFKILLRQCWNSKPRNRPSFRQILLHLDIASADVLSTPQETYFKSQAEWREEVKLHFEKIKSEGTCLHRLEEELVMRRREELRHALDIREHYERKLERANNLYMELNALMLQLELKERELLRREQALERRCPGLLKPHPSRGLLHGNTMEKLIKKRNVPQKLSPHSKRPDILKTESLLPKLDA
Put plainly: biochemical.
Conditions: not given
`CC(C)n1nc(-c2cnc(N)c(C(F)F)c2)cc1C(C)(C)C#N` [Compound 5, 2-(3-(6-amino-5-(difluoromethyl)pyridin-3-yl)-1-isopropyl-1H-pyrazol-5-yl)-2-methylpropanenitrile] had a pKi of under 6.00.
`CC(C)n1nc(-c2cnc3c(c2)CCCN3)cc1C1CCN(C2COC2)CC1` [Compound 96, 6-(1-isopropyl-5-(1-(oxetan-3-yl)pipe-ridin-4-yl)-1H-pyrazol-3-yl)-1,2,3,4-tetahydro-1,8-naphthyridine] had a pKi of under 6.00.
`CC(C)n1nc(-c2cnc3c(c2)CC(=O)N3)cc1C1CCN(C2COC2)CC1` [Compound 73, 5-(1-isopropyl-5-(1-(oxetan-3-yl)pipe-ridin-4-yl)-1H-pyrazol-3-yl)-1H-pyrro-lo[2,3-b]pyridin-2(3H)-one] gave a negative logarithm of the Ki (pKi) of under 6.00.

A further test concerns the target T1, DLK.
Experiment: not given
As to conditions: read-out: DLK (Ki) μM; TR-FRET; 5 nM GST-tagged DLK (catalytic domain aa 1-520), 40 nM HIS-MKK4 K131M substrate, 30 μM ATP, 60 minutes.
As for `Nc1ncc(-c2cc([C@H]3[C@@H]4CN(C5COC5)C[C@@H]43)n(CC3CCC3)n2)cc1C(F)(F)F` [Compound 160, 5-(1-(cyclobutylmethyl)-5-((1R,5S,6r)-3-(oxetan-3-yl)-3-azabicyclo[3.1.0]hexan-6-yl)-1H-pyrazol-3-yl)-3-(tri-fluoromethyl)pyridin-2-amine], the Ki amounted to 0.0081 µM.
Same read-out and setting: the result for `CC(C)n1nc(-c2cnc(N)c(C(F)(F)F)c2)cc1C1CCN(C2CCC2)CC1` [Compound 102, 5-(5-(1-cyclobutylpiperidin-4-yl)-1-isopropyl-1H-pyrazol-3-yl)-3-(trifluoromethyl)pyridin-2-amine] reads 0.034 µM; that for `CC(C)n1nc(-c2cnc(N)c(C3CC3)c2)cc1[C@H]1[C@@H]2CN(C3COC3)C[C@@H]21` [Compound 142, 3-cyclopropyl-5-(1-isopropyl-5-((1R,5S,6r)-3-(oxetan-3-yl)-3-azabicyclo [3.1.0]hexan-6-yl)-1H-pyrazol-3-yl) pyridin-2-amine], 0.022 µM.
Still for that read-out and setting: the result for `CC1(Cn2nc(-c3cnc(N)c(C(F)(F)F)c3)cc2[C@H]2[C@@H]3CN(C4COC4)C[C@@H]32)CC1` [Compound 177, 5-(1-((1-methylcyclopropyl)methyl)-5-((1R,5S,6r)-3-(oxetan-3-yl)-3-aza-bicyclo[3.1.0]hexan-6-yl)-1H-pyrazol-3-yl)-3-(trifluoromethyl)pyridin-2-amine] reads 0.00067 µM; that for `CC(C)n1nc(-c2cnc(N)c(C(F)(F)F)c2)cc1C1CCN(C)CC1` [Compound 41, 5-(1-isopropyl-5-(1-methylpiperidin-4-yl)-1H-pyrazol-3-yl)-3-(trifluoromethyl)pyridin-2-amine], 0.045 µM.
Turning to `Nc1ncc(-c2cc(C3CCN(C4COC4)CC3)n(C3CCC(F)(F)C3)n2)cc1OCC1CC1` (centres unmarked) [Compound 87, 3-(cyclopropylmethoxy)-5-(1-(3,3-di-fluorocyclopentyl)-5-(1-(oxetan-3-yl)piperidin-4-yl)-1H-pyrazol-3-yl)pyri-din-2-amine], the Ki worked out at 0.64 µM.
The same measure, in the same setting: to `Nc1ncc(-c2cc(C3CCN(C4COC4)CC3)n(C3CCCC3)n2)cc1C(F)(F)F` [Compound 81, 5-(1-cyclopentyl-5-(1-(oxetan-3-yl)piperidin-4-yl)-1H-pyrazol-3-yl)-3-(trifluoromethyl)pyridin-2-amine] belongs 0.084 µM; to `Nc1ncc(-c2cc([C@H]3[C@@H]4CN(C5COC5)C[C@@H]43)n(CC3CC3)n2)cc1OC(F)F` [Compound 173, 5-(1-(cyclopropylmethyl)-5-((1R,5S,6r)-3-(oxetan-3-yl)-3-azabicyclo[3.1.0]hexan-6-yl)-1H-pyrazol-3-yl)-3-(difluoromethoxy)pyridin-2-amine], 0.0039 µM; to `CCOc1cc(-c2cc(C3CCN(C4COC4)CC3)n(C(C)C)n2)cnc1N` [Compound 83, 3-ethoxy-5-(1-isopropyl-5-(1-(oxetan-3-yl)piperidin-4-yl)-1H-pyrazol-3-yl)pyridin-2-amine], 0.39 µM.
Same read-out and setting: to `CC(=O)N1CCC(c2cc(-c3cnc4[nH]cc(C)c4c3)nn2C(C)C)CC1` [Compound 49, 1-(4-(1-isopropyl-3-(3-methyl-1H-pyrrolo[2,3-b]pyridin-5-yl)-1H-pyrazol-5-yl)piperidin-1-yl)ethanone] belongs 0.019 µM.
On the same count and under the same terms, the result for `Nc1ncc(-c2cc(C3CCOC3)n(C3CCC(F)(F)C3)n2)cc1Cl` (centres unmarked) [Compound 23, 3-chloro-5-(1-(3,3-difluorocyclopent-yl)-5-(tetrahydrofuran-3-yl)-1H-pyra-zol-3-yl)pyridin-2-amine] reads 0.35 µM; that for `CC(C)Oc1cc(-c2cc([C@H]3[C@@H]4CN(C5COC5)C[C@@H]43)n(C3CCCC3)n2)cnc1N` [Compound 156, 5-(1-cyclopentyl-5-((1R,5S,6r)-3-(oxe-tan-3-yl)-3-azabicyclo[3.1.0]hexan-6-yl)-1H-pyrazol-3-yl)-3-isopropoxy-pyridin-2-amine], 0.032 µM; that for `COc1cc(-c2cc(C3CCN(C4COC4)CC3)n(C(C)C)n2)cnc1N` [Compound 89, 5-(1-isopropyl-5-(1-(oxetan-3-yl)pipe-ridin-4-yl)-1H-pyrazol-3-yl)-3-meth-oxypyridin-2-amine], 0.14 µM.
Regarding `COc1cc(-c2cc([C@H]3[C@@H]4CN(C5COC5)C[C@@H]43)n(C(C)C)n2)cnc1N` [Compound 145, 5-(1-isopropyl-5-((1R,5S,6r)-3-(oxetan-3-yl)-3-azabicyclo[3.1.0]hexan-6-yl)-1H-pyrazol-3-yl)-3-methoxy-pyridin-2-amine], the Ki was determined as 0.0074 µM.
As for `CC(C)n1nc(-c2cnc3[nH]cc(Cl)c3c2)cc1C1CCN(C2COC2)CC1` [Compound 72, 3-chloro-5-(1-isopropyl-5-(1-(oxetan-3-yl)piperidin-4-yl)-1H-pyrazol-3-yl)-1H-pyrrolo[2,3-b]pyridine], the Ki worked out at 0.015 µM.
On to `CC(C)n1nc(-c2cnc(N)c(C3CC3)c2)cc1C1CCN(C2COC2)CC1` [Compound 98, 3-cyclopropyl-5-(1-isopropyl-5-(1-(oxe-tan-3-yl)piperidin-4-yl)-1H-pyra-zol-3-yl)pyridin-2-amine], for which the Ki is 0.36 µM.
Same read-out and setting: to `COCCN1C[C@@H]2[C@H](C1)[C@H]2c1cc(-c2cnc(N)c(Cl)c2)nn1CC(C)C` [Compound 120, 3-chloro-5-(1-isobutyl-5-((1R,5S,6r)-3-(2-methoxyethyl)-3-azabicyclo[3.1.0]hexan-6-yl)-1H-pyrazol-3-yl)pyri-din-2-amine] belongs 0.03 µM; to `CCc1c[nH]c2ncc(-c3cc(C4CCOC4)n(C4CC(F)(F)C4)n3)cc12` (centres unmarked) [Compound 20, 5-(1-(3,3-difluorocyclobutyl)-5-(tetra-hydrofuran-3-yl)-1H-pyrazol-3-yl)-3-ethyl-1H-pyrrolo[2,3-b]pyridine], 0.025 µM; to `N#Cc1cc(-c2cc([C@H]3[C@@H]4CN(CC(F)(F)F)C[C@@H]43)n(CC3CC3)n2)cnc1N` [Compound 113, 2-amino-5-(1-(cyclopropylmethyl)-5-((1R,5S,6r)-3-(2,2,2-trifluoroethyl)-3-azabicyclo[3.1.0]hexan-6-yl)-1H-pyrazol-3-yl)nicotinonitrile], 0.064 µM.
Still for that read-out and setting: the result for `CC(=O)N1CC(c2cc(-c3cnc4[nH]cc(C)c4c3)nn2C(C)C)C1` [Compound 12, 1-(3-(1-isopropyl-3-(3-methyl-1H-pyrrolo[2,3-b]pyridin-5-yl)-1H-pyrazol-5-yl)azetidin-1-yl)ethanone] reads 0.026 µM; that for `Nc1ncc(-c2cc([C@H]3[C@@H]4CN(CC(F)(F)F)C[C@@H]43)n(C3COC3)n2)cc1Cl` [Compound 111, 3-chloro-5-(1-(oxetan-3-yl)-5-((1R,5S, 6r)-3-(2,2,2-trifluoroethyl)-3-azabi-cyclo[3.1.0]hexan-6-yl)-1H-pyrazol-3-yl)pyridin-2-amine], 0.18 µM; that for `Nc1ncc(-c2cc([C@H]3[C@@H]4CN(C5COC5)C[C@@H]43)n(C3CCC3)n2)cc1Cl` [Compound 147, 3-chloro-5-(1-cyclobutyl-5-((1R,5S,6r)-3-(oxetan-3-yl)-3-azabicyclo[3.1.0]hexan-6-yl)-1H-pyrazol-3-yl)pyri-din-2-amine], 0.018 µM.
On the same count and under the same terms, to `Nc1ncc(-c2cc([C@H]3[C@@H]4CN(C5COC5)C[C@@H]43)n(CC3CCC3)n2)cc1OC(F)F` [Compound 164, 5-(1-(cyclobutylmethyl)-5-((1R,5S,6r)-3-(oxetan-3-yl)-3-azabicyclo[3.1.0]hexan-6-yl)-1H-pyrazol-3-yl)-3-(di-fluoromethoxy)pyridin-2-amine] belongs 0.013 µM; to `CC(C)n1nc(-c2cnc(N)c(C(F)(F)F)c2)cc1C1CCN(C2COC2)C1` (centres unmarked) [Compound 67, 5-(1-isopropyl-5-(1-(oxetan-3-yl)pyr-rolidin-3-yl)-1H-pyrazol-3-yl)-3-(tri-fluoromethyl)pyridin-2-amine], 0.03 µM; to `Cc1c[nH]c2ncc(-c3cc(C4CCN(C5COC5)C4)n(C(C)C)n3)cc12` (centres unmarked) [Compound 64, 5-(1-isopropyl-5-(1-(oxetan-3-yl)pyr-rolidin-3-yl)-1H-pyrazol-3-yl)-3-meth-yl-1H-pyrrolo[2,3-b]pyridine], 0.0045 µM.
Turning to `CC(C)n1nc(-c2cnc3[nH]cc(F)c3c2)cc1C1CCN(C2COC2)C1` (centres unmarked) [Compound 66, 3-fluoro-5-(1-isopropyl-5-(1-(oxetan-3-yl)pyrrolidin-3-yl)-1H-pyrazol-3-yl)-1H-pyrrolo[2,3-b]pyridine], the inhibitory constant (Ki) is 0.11 µM.
